Measured values reported in patent publication US20120129781A1, “COMPOSITION COMPRISING ALPHA-LIPOIC ACID AND CARNOSINE FOR TREATING THE PHANTOM LIMB SYNDROME” (DIFASS INTERNATIONAL S.R.L., priority 2009, published 2012).

Assays:
phantom limb pain = conditions: literature reports (Smith et al. 2005; Bergmans et al. 2002); cited from earlier work
phantom limb syndrome = test: Two-month daily oral treatment of lower-limb amputee patients affected by phantom limb syndrome (ASIS, VAS, McGill Pain Questionnaire, QoL at t0, 30 and 60 days); type: in vivo; conditions: lower-limb amputees, daily oral uptake for two months, evaluated at t0, 30 and 60 days
From the text: In order not to negatively influence the test, it was decided not to include the following in such groups: diabetic patients (in order to avoid interferences with the symptoms of diabetic neuropathy and with the drugs used by the diabetic patient), subjects with psychiatric pathologies also at a compensation stage, subjects with serious cognitive deficits, subjects affected by active hepatic and/or renal pathologies, subjects with organ pathologies and/or other serious comorbidities.
Group A (reference) was subdivided into two uniform groups A1 and A2; group A1 was subjected to a conventional treatment, orally taking for two months a daily dosage amount of the neuromodulator Gabapentin, a known anti-epileptic drug with indications in the treatment of neuropathic pain, as described in US patent application publication No. US 2006/159743. Group A2 was subjected to the same treatment, substituting the neuromodulator Gabapentin with the analogous neuromodulator Pregabalin.
Groups B and C were subjected, during the same two-month period, to a daily uptake of the composition 1 and, respectively, 2 of the present invention, in the same daily dosage amount of 1,200 mg.
This text is aimed at investigating how an amputee perceives their own body image. It is constituted by 20 points; the subjects are asked to indicate their answer by using a scale from 1 (never) to 5 (always). […]

CCC(=O)C(CC(C)N(C)C)(c1ccccc1)c1ccccc1 (stereo not drawn) [methadone]
effect on phantom limb pain (literature) (phantom limb pain): effective reduction of the phantom limb pain

CC(C)C[C@H](CN)CC(=O)O [pregabalin]
phantom limb pain and stump pain (VAS and McGill Pain Questionnaire) (phantom limb syndrome): only experienced a certain decrease of the pain
phantom limb sensation (sensation of possession of the missing limb, ASIS Amputee Body Image Scale) (phantom limb syndrome): did not receive any benefit
